Experimental data reported in BigSolDB 2.1.

CCN(CC)C(=S)SSC(=S)N(CC)CC
solubility (mole fraction)
Conditions	in THF	in acetonitrile	in dichloromethane	in ethanol	in ethyl acetate	in isobutanol	in isopropanol	in methanol	in n-butanol	in n-propanol
273.15 K	0.0618	0.0134	0.11	0.000903	0.00709	0.00101	0.000564	0.000896	0.00109	0.00101
278.15 K	0.0719	0.0174	0.118	0.00111	0.0101	0.00119	0.000733	0.00105	0.00155	0.00127
283.15 K	0.0825	0.024	0.13	0.00143	0.0143	0.00146	0.000981	0.00134	0.00216	0.00167
288.15 K	0.0942	0.0313	0.143	0.00192	0.0201	0.00198	0.00133	0.00172	0.0028	0.00229
293.15 K	0.111	0.041	0.159	0.00266	0.0275	0.00263	0.0018	0.00235	0.00375	0.00301
298.15 K	0.131	0.0558	0.175	0.00339	0.0405	0.0035	0.0026	0.00323	0.00518	0.00423
303.15 K	0.152	0.0793	0.202	0.00466	0.0571	0.0052	0.00346	0.0042	0.00715	0.00571
308.15 K	0.173	0.108	0.229	0.0063	0.0809	0.00779	0.0047	0.00541	0.0104	0.00797
313.15 K	0.198	0.141	0.263	0.00911	0.107	0.011	0.00651	0.00736	0.0151	0.0106
318.15 K	0.228	0.184	–	0.0131	0.143	0.0152	0.00964	0.0106	0.0208	0.0155
